Laboratory results taken from the supplement of paper PMC10307832.

Columns and labels:
Assay in all cases: relative viability (nuclei count vs DMSO), 5 days (fraction); higher = more cells survive
Hydroxychloroquine = compound: CCN(CCO)CCCC(C)Nc1ccnc2cc(Cl)ccc12 [Hydroxychloroquine]
In short: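 Following overnight incubation at 37 °C, lung cancer cell lines in 1536-well plates were pinned with five library-drug doses (not always all listed) in √10 steps on vehicle-anchored plates. The cells then spent 5 days without medium change before a combined fix, permeabilisation and Hoechst stain, 4× imaging and MetaXpress nuclear counts. Viability is the treated-to-vehicle ratio of nuclei, taken as the median across plates. Only plates with control CV below 25% and at least one doubling passed.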

[1] = compound: CCN(CCO)CCCC(C)Nc1ccnc2cc(Cl)ccc12 [Hydroxychloroquine] + CC(=O)c1c(C)c2cnc(Nc3ccc(N4CCNCC4)cn3)nc2n(C2CCCC2)c1=O [Palbociclib] (partner 0.5 µM)
In short: (§1)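 Lung cancer cell lines in 1536-well plates got either a single drug or a fixed anchor-drug dose together with five library-drug doses (not always all listed) in √10 steps, by pin tool, on the day after seeding. Nuclei were counted after 5 days, and relative viability is the treated-to-vehicle ratio of nuclei counts. Values are medians of duplicate plates.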

[2] = compound: CCN(CCO)CCCC(C)Nc1ccnc2cc(Cl)ccc12 [Hydroxychloroquine] + COc1cccc2cc(-c3nc([C@H]4CC[C@H](C(=O)O)CC4)n4ncnc(N)c34)[nH]c12 [OSI-027] (partner 0.5 µM)
In short: as §1

[3] = compound: CCN(CCO)CCCC(C)Nc1ccnc2cc(Cl)ccc12 [Hydroxychloroquine] + COc1cc2c(Oc3ccc(NC(=O)C4(C(=O)Nc5ccc(F)cc5)CC4)cc3F)ccnc2cc1OCCCN1CCOCC1 [Foretinib] (partner 0.25 µM)
In short: as §1

| Cell Line | relative viability (Hydroxychloroquine; 0.5 µM) | relative viability (Hydroxychloroquine; 1.581 µM) | relative viability (Hydroxychloroquine; 5 µM) | relative viability (Hydroxychloroquine; 15.81 µM) | relative viability (Hydroxychloroquine; 50 µM) | relative viability ([1]; first compound 0.5 µM) | relative viability ([1]; first compound 1.581 µM) | relative viability ([1]; first compound 5 µM) | relative viability ([1]; first compound 15.81 µM) | relative viability ([1]; first compound 50 µM) | relative viability ([2]; first compound 0.5 µM) | relative viability ([2]; first compound 1.581 µM) | relative viability ([2]; first compound 5 µM) | relative viability ([2]; first compound 15.81 µM) | relative viability ([2]; first compound 50 µM) | relative viability ([3]; first compound 0.5 µM) | relative viability ([3]; first compound 1.581 µM) | relative viability ([3]; first compound 5 µM) | relative viability ([3]; first compound 15.81 µM) | relative viability ([3]; first compound 50 µM) |
| --- | --- | --- | --- | --- | --- | --- | --- | --- | --- | --- | --- | --- | --- | --- | --- | --- | --- | --- | --- | --- |
| 201T | 0.965 | 0.974 | 0.968 | 0.981 | 1.04 | 0.339 | 0.351 | 0.378 | 0.379 | 0.384 | 0.731 | 0.738 | 0.721 | 0.827 | 0.965 | 1.21 | 1.05 | 1.03 | 1.2 | 1.2 |
| A-427 | 0.995 | 0.945 | 0.964 | 1 | 0.968 | 0.499 | 0.474 | 0.483 | 0.512 | 0.493 | 0.486 | 0.308 | 0.387 | 0.412 | 0.424 | 1.05 | 1.09 | 0.974 | 1.15 | 1.16 |
| ABC-1 | 0.89 | 0.854 | 0.856 | 0.885 | 0.91 | 0.726 | 0.776 | 0.909 | 0.793 | 0.714 | 0.469 | 0.501 | 0.467 | 0.417 | 0.631 | 0.761 | 0.984 | 1.18 | 1.25 | 1.28 |
| BEN | 1.04 | 0.894 | 0.977 | 1.06 | 1.07 | 0.482 | 0.434 | 0.439 | 0.473 | 0.469 | 0.319 | 0.284 | 0.268 | 0.373 | 0.325 | 0.647 | 0.634 | 0.588 | 0.567 | 0.577 |
| CAL-12T | 1.01 | 0.973 | 0.957 | 0.979 | 1.02 | 0.56 | 0.383 | 0.462 | 0.478 | 0.595 | 0.97 | 0.8 | 0.633 | 0.684 | 0.687 | 0.974 | 1.04 | 1.04 | 1.33 | 1.06 |
| COR-L23 | 1.06 | 1.17 | 1.16 | 1.08 | 1.03 | 0.215 | 0.232 | 0.309 | 0.299 | 0.307 | 0.756 | 0.809 | 0.822 | 0.91 | 0.85 | 1.04 | 0.993 | 1.02 | 0.994 | 1.18 |
| COR-L 105 | 0.875 | 0.935 | 0.876 | 0.804 | 0.864 | 0.41 | 0.354 | 0.405 | 0.391 | 0.392 | 0.643 | 0.598 | 0.708 | 0.739 | 0.668 | 0.896 | 1.11 | 0.951 | 1.23 | 0.997 |
| Calu-6 | 1.04 | 1.03 | 1 | 1.1 | 1 |  |  |  |  |  |  |  |  |  |  | 0.922 | 0.855 | 0.888 | 0.872 | 0.879 |
| ChaGo-K-1 | 0.958 | 1.07 | 0.911 | 1.01 | 1.03 | 0.967 | 0.942 | 0.912 | 0.975 | 0.989 | 0.688 | 0.675 | 0.498 | 0.53 | 0.609 | 0.939 | 1.04 | 0.929 | 0.911 | 1.04 |
| EBC-1 | 1.01 | 0.897 | 1.05 | 0.973 | 1.13 |  |  |  |  |  |  |  |  |  |  | 0.122 | 0.093 | 0.0998 | 0.11 | 0.132 |
| EKVX | 0.962 | 0.902 | 0.893 | 1.02 | 1.01 | 0.354 | 0.374 | 0.377 | 0.74 | 0.412 | 0.797 | 0.851 | 0.79 | 0.758 | 0.776 | 0.824 | 0.795 | 0.753 | 0.767 | 0.75 |
| EMC-BAC-2 | 1.05 | 0.824 | 0.953 | 1.02 | 0.912 | 0.52 | 0.45 | 0.519 | 0.514 | 0.523 | 0.376 | 0.324 | 0.381 | 0.368 | 0.365 | 0.998 | 0.877 | 1.08 | 0.941 | 0.985 |
| EPLC-272H | 0.963 | 0.843 | 0.98 | 0.94 | 1.08 | 0.281 | 0.34 | 0.309 | 0.285 | 0.295 | 0.249 | 0.232 | 0.276 | 0.252 | 0.314 | 0.776 | 0.673 | 0.709 | 0.703 | 0.799 |
| H3255 | 0.982 | 0.946 | 0.974 | 0.951 | 0.951 | 0.335 | 0.32 | 0.303 | 0.318 | 0.312 | 0.653 | 0.524 | 0.569 | 0.6 | 0.665 | 0.924 | 0.84 | 0.818 | 0.783 | 0.798 |
| HARA | 1.23 | 0.938 | 0.876 | 1 | 0.903 | 0.239 | 0.292 | 0.26 | 0.302 | 0.23 | 0.608 | 0.416 | 0.469 | 0.486 | 0.435 | 0.957 | 0.918 | 0.891 | 0.921 | 1.07 |
| HCC-15 | 1.08 | 0.956 | 1.04 | 1.06 | 1.04 | 0.754 | 0.762 | 0.745 | 0.731 | 0.574 | 0.754 | 0.672 | 0.634 | 0.656 | 0.724 | 1.1 | 1.04 | 1.04 | 1.04 | 1.05 |
| HCC-44 | 1.04 | 0.996 | 1.01 | 1.01 | 1.04 | 0.952 | 1.03 | 1.01 | 1.04 | 1.03 | 0.504 | 0.418 | 0.43 | 0.511 | 0.547 |  |  |  |  |  |
